| Compound | melting point [°C] |
| --- | --- |
| CCCCCCCN(CC)C(=O)Cc1ccc(N)cc1 | 172 to 174 |
| CCOC(=O)C1=C(C)NN=C(C(=O)OC)C1c1ccccc1C (stereo not drawn) | 165 |
| CC(=O)OCSC1=CCC2C3CCC4=CC(=O)C=CC4(C)C3(F)C(O)CC12C (stereo not drawn) | 193 to 194 |
| Cn1c2ccccc2c(=O)c2cccn21 | 154 to 156 |
| O=C(O)COc1ccc2c(=O)c3cc(Cl)ccc3oc2c1Cl | 262 to 263 |
| O=C(/C=C/c1ccc(OC(F)(F)F)cc1)/C=C/c1ccc(C(F)(F)F)cc1 | 97 to 99 |
| COc1cc(CC(=O)NCCCc2ccc(C)c(C)c2)ccc1OCCN(CCO)CCO | 54 to 58 |
| CC(C)(C)OC(=O)Nc1ccc(-c2ccccc2F)cc1[N+](=O)[O-] | 131 to 133 |
| CC(O)CCc1ccc(-c2ccccc2F)cc1 (stereo not drawn) | 59 to 60 |
| CN(C)C(=O)Oc1ccc2nc(S(N)(=O)=O)sc2c1 | 208 to 209 |
| Cn1ccc2cc(NC(=O)c3cc4cccnc4n3Cc3cccc(F)c3)ccc21 | 191 to 192 |
| CCCCCCCCCCCCCCOc1ccc(CC(=O)Nc2cccc(CBr)c2)cc1 | 116 to 118 |
| CN1C(=O)CC2(Cc3cc4ccccc4n3C2)C1=O (stereo not drawn) | 154 to 156 |
| CCOC(=O)c1cn2c(cc(Cl)c3ccccc32)n1 | 169 to 170 |
| CCC(C#N)c1nsc2ccc(-n3c(=O)cc(C(F)(F)F)n(C)c3=O)cc12 (stereo not drawn) | 107 to 109 |
| N#Cc1ccc(OC2CCOC2=O)cc1C(F)(F)F (stereo not drawn) | 107 to 108 |
| CN1CC(c2cccc(Cl)c2)=C(c2ccc(S(C)(=O)=O)cc2)C1=O | 170 to 172 |
| CC(=O)[NH+]([O-])C[C@@H]1CN(c2cc(F)c(N3CCN(C(=O)CO)CC3)c(F)c2)C(=O)O1 (stereo partly drawn) | 100 to 105 |
| CC(=O)N(Cc1ccc2c(c1)OCO2)c1ccc(Oc2ccccc2)cc1 | 75 to 76 |
| Cc1cc2c(S(C)(=O)=O)nc(OCC(F)(F)F)nc2s1 | 138 to 140 |
| CC(=O)Nc1ccc(-c2cn(-c3nc(-c4ccc(C(F)(F)F)cc4)cc(C(F)(F)F)n3)cn2)cn1 | 314 |
| CCCCN1CCC(n2c(=O)[nH]c3ccccc32)CC1 | 207 to 209 |
| N#CCc1cc(Cl)c(C(=O)c2ccc(Cl)cc2)[nH]1 | 194 to 197 |
| CCCOc1ccc(-c2cc(C)cn2-c2ccc(S(N)(=O)=O)cc2)cc1 | 142 to 145 |
| Nc1ccc(Sc2ccccc2)cc1C(F)(F)F | 63 to 66.5 |
| Nc1cc(C(=O)O)cc(S(N)(=O)=O)c1Oc1cccc(Cl)c1 | 239 to 240 |
| O=C1c2cc(Br)cc(Br)c2CCC1n1ccnc1 (stereo not drawn) | 180 to 184 |

Results, then the compound that gave them:

| melting point [°C] | Compound |
| --- | --- |
| 152 to 153 | Cc1oc(-c2ccco2)nc1COc1ccc(Cn2cc(CCC(=O)O)c(-c3ccccc3)n2)cc1 |
| 195 to 200 | O=C1NC(=O)C(c2c[nH]c3ccc(Br)cc23)C1c1cc2c3c(ccn3CCC2)c1 (stereo not drawn) |
| 170 to 172 | COc1cc2c(cc1OCc1ccccc1)C1Cc3c(Cl)cc(OC)c(OC(=O)c4ccccc4)c3CN1CC2 (stereo not drawn) |
| 250 to 252 | O=C1CCC(N2Cc3cc(CNC(=O)Nc4cccc5ccccc45)ccc3C2=O)C(=O)N1 (stereo not drawn) |
| 212 to 213 | O=C(CN1CCN(c2ccc([N+](=O)[O-])cc2)CC1)Nc1ccc(Nc2ccccc2)cc1 |
| 194 to 195 | O=C(O)C1Cc2c([nH]c3ccccc23)CN1C(=S)SCc1ccc([N+](=O)[O-])cc1 (stereo not drawn) |
| 127 to 134 | CC1Nc2ccccc2N2CCc3cccc1c32 (stereo not drawn) |
| 100 | CCCc1c(OCCCOc2ccccc2)ccc2c1OC(CCC(=O)OC)(CCC(=O)OC)CC2=O |
| 110 to 112 | CCc1c(Cc2ccccc2)oc2c(C(=O)NCCCN3CCN(c4ccccc4OC)CC3)cccc12 |
| 128 to 134 | CC(C)(C)OC(=O)N1CCC=C(c2ccnc(C(=O)N(O)Cc3ccccc3)c2)C1 |
| 120 to 123 | O=C1N(Cc2ccc3c(c2)OCCO3)c2ccccc2C12COc1cc3c(cc12)OCCO3 (stereo not drawn) |

From a melting point compilation (Tetko et al.; mined from patent text by program, amines drawn as free bases though some values may be those of a salt)
